Measured values: BindingDB's records for PubMed 9152366 (University of California San Francisco, 1997)
“And” between values parts separate entries of the source, which are not always exact repeats. Identical values can stand only once. Bridge positions count the residues as written; N and C are the ends. Square brackets hold non-standard residues; d marks the D form. Peptide text beside a SMILES is read from it. Nle = CCCC[C@H](N)C(=O)O

Experiments:
VIP peptides = biological target: T1, VIP peptides (Homo sapiens, UniProt P01282)
T1 sequence (P01282 whole entry): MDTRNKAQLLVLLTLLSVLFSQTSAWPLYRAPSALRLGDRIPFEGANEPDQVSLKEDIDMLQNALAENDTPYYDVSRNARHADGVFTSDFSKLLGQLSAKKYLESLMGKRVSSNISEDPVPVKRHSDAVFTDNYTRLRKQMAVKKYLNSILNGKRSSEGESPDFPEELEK

[1] = biological target: T2, Vasoactive intestinal polypeptide receptor 2 (Homo sapiens, UniProt P41587)
T2 sequence (P41587 whole entry): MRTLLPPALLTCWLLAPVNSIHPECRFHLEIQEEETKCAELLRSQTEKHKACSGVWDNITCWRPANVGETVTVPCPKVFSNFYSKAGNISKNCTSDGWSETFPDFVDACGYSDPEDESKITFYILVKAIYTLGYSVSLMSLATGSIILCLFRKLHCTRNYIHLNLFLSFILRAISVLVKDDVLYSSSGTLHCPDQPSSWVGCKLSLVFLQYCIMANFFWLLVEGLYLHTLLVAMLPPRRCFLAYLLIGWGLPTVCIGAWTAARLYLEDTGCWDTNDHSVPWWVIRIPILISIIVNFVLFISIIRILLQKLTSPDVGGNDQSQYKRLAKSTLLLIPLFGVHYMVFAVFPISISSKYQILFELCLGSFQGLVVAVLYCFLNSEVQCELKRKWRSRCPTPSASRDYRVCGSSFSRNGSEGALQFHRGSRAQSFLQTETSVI

Ki (VIP peptides): 3.4 nM
Ki [1]: 16 nM and 9.6 nM
Structure (SMILES): CCCC[C@H](NC(=O)[C@H](CCC(N)=O)NC(=O)[C@H](CCCCN)NC(=O)[C@H](CCCNC(=N)N)NC(=O)[C@H](CC(C)C)NC(=O)[C@H](CCCCN)NC(=O)[C@@H](NC(=O)[C@H](Cc1ccc(OC)cc1)NC(=O)[C@H](CC(N)=O)NC(=O)[C@H](CCC(=O)O)NC(=O)[C@@H](NC(=O)[C@H](Cc1ccccc1)NC(=O)[C@@H](NC(=O)[C@H](C)NC(=O)[C@H](CC(=O)O)NC(=O)[C@H](CO)NC(=O)[C@H](Cc1c[nH]cn1)NC(C)=O)C(C)C)[C@@H](C)O)[C@@H](C)O)C(=O)N[C@@H](C)C(=O)N[C@@H](C)C(=O)N[C@@H](CCCCN)C(=O)N[C@H]1CCCCNC(=O)C[C@@H](C(=O)N[C@@H](CC(C)C)C(=O)N[C@@H](CCCCN)C(=O)N[C@@H](CCCCN)C(N)=O)NC(=O)[C@H](CC(N)=O)NC(=O)[C@H](CC(C)C)NC(=O)[C@H](Cc2ccc(O)cc2)NC1=O [CAS_150828-75-4] (Ac-HSDAVFTENY(Me)TKLRKQ[Nle]AAKKYLNDLKK-NH2; lactam 21-25)
